Laboratory results taken from patent US10548829B2, “Oral care compositions and methods of use” (priority 2016, dated 2020).

System: HaCaT cells
Test: Scratch assay, cell migration/proliferation "wound healing"
Assay type: cell-based, human
Conditions: 0.1 mM in 1% DMSO complete media
Procedure: Cell Culture: Spontaneously immortalized human keratinocyte line, HaCaT cells (AddexBio, San Diego, Calif., cat # T0020001) were cultured in 25 cm^2 vented, Falcon canted tissue culture flasks (VWR, Radnor, Pa., cat #353108) using complete DMEM media (Life Technologies, Grand Island, N.Y., cat #11965-092) supplemented with 10% characterized Hyclone FBS (VWR, Radnor, Pa., cat #1677-014) and 1× Penicillin—Streptomycin (Life Technologies, Grand Island, N.Y., cat #15140122). The cultures were incubated at 37° C. and 5% CO2 until the cells reached around 70-80% confluence. […]
Assay sample preparation: Samples were prepared in a final concentration of 1% DMSO in complete media. […] Two different batches of product 5 were tested at 0.15 mM, the average % Growth Relative to day 0 (d0) was determined and presented in FIG. 20. […]
Quantifying cell migration/wound healing: To explore the effects of various actives on cell migration/wound healing, the size of the freshly generated wound (the gap size) was determined following treatment using an inverted microscope (Olympus 1X71, Olympus Scientific Solutions Americas, Waltham, Mass.) and Cellsens Dimension 1.11 (Olympus Corporation, Waltham, Mass.) software and monitored until the gap closed completely. […] The mean of each arm was determined for each day of the study until the wound heal and no gap existed. […]

C[C@@H]1O[C@@H](O[C@H]2[C@H](Oc3cc(O)c4c(c3)O[C@H](c3ccc(O)cc3)CC4=O)O[C@H](CO)[C@@H](O)[C@@H]2O)[C@H](O)[C@H](O)[C@H]1O [Naringin]
wound healing, % growth relative to d0 (in words): not significantly different from that of Zinc acetate
